# Measured values: ChEMBL document CHEMBL1201862, “PubChem BioAssay data set” (2004)
#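 Each compound was tested at five concentrations against cells in 96-well plates for 48 hours. GI50 = concentration required for 50% inhibition of growth.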 Active and inactive are the calls of the source. No stated cut-off is given here; in the data, active = GI50 up to about 1.1 µM and inactive = higher.
# Experiments:
# Assay in all cases: growth of human tumour cells (NCI), 48 h
# K562 = system: K562
# NCI-H460 = system: NCI-H460
# SN12C = system: SN12C
# MDA-N = system: MDA-N
# A498 = system: A498
# MDA-MB-435 = system: MDA-MB-435
# U-251 = system: U-251
# SF-539 = system: SF-539
# MCF7 = system: MCF7
# CCRF-CEM = system: CCRF-CEM
# SR = system: SR
# RXF 393 = system: RXF 393
# SK-MEL-5 = system: SK-MEL-5
# Malme-3M = system: Malme-3M
# SW-620 = system: SW-620
# M14 = system: M14
# PC-3 = system: PC-3
# DU-145 = system: DU-145
# UO-31 = system: UO-31
# EKVX = system: EKVX
# OVCAR-3 = system: OVCAR-3
# SNB-75 = system: SNB-75
# NCI-H23 = system: NCI-H23
# HL-60 = system: HL-60
# UACC-62 = system: UACC-62
# IGROV-1 = system: IGROV-1
# HOP-62 = system: HOP-62
# HOP-92 = system: HOP-92
# OVCAR-8 = system: OVCAR-8
# RPMI-8226 = system: RPMI-8226
# MDA-MB-231 = system: MDA-MB-231
# 786-0 = system: 786-0
# HT-29 = system: HT-29
# NCI/ADR-RES = system: NCI/ADR-RES
# SF-295 = system: SF-295
# COLO 205 = system: COLO 205
# SK-MEL-28 = system: SK-MEL-28
# TK-10 = system: TK-10
# HCT-116 = system: HCT-116
# OVCAR-4 = system: OVCAR-4
# CAKI-1 = system: CAKI-1
# NCI-H522 = system: NCI-H522
# KM12 = system: KM12
# SF-268 = system: SF-268
# MOLT-4 = system: MOLT-4
# HCT-15 = system: HCT-15
# Hs-578T = system: Hs-578T
# SK-OV-3 = system: SK-OV-3
# SK-MEL-2 = system: SK-MEL-2
# SNB-19 = system: SNB-19
# LOX IMVI = system: LOX IMVI
# HCC 2998 = system: HCC 2998
# A549 = system: A549
# BT-549 = system: BT-549
# UACC-257 = system: UACC-257
# T47D = system: T47D
# NCI-H226 = system: NCI-H226
# OVCAR-5 = system: OVCAR-5
# ACHN = system: ACHN
smiles,measurement,setting,value
Cc1cc(NS(=O)(=O)c2ccc(Nc3c4ccccc4nc4ccc(C(=O)Nc5ccc(S(N)(=O)=O)cc5)cc34)cc2)no1,GI50,K562,> 100 µM (inactive)
same,GI50,NCI-H460,> 100 µM (inactive)
same,GI50,SN12C,> 100 µM (inactive)
same,GI50,MDA-N,> 100 µM (inactive)
same,GI50,A498,> 100 µM (inactive)
same,GI50,MDA-MB-435,> 100 µM (inactive)
same,GI50,U-251,57.4 µM (inactive)
same,GI50,SF-539,> 100 µM (inactive)
same,GI50,MCF7,> 100 µM (inactive)
same,GI50,CCRF-CEM,> 100 µM (inactive)
same,GI50,SR,> 100 µM (inactive)
same,GI50,RXF 393,> 100 µM (inactive)
same,GI50,SK-MEL-5,> 100 µM (inactive)
same,GI50,Malme-3M,> 100 µM (inactive)
same,GI50,SW-620,> 100 µM (inactive)
same,GI50,M14,> 100 µM (inactive)
same,GI50,PC-3,> 100 µM (inactive)
same,GI50,DU-145,> 100 µM (inactive)
same,GI50,UO-31,> 100 µM (inactive)
same,GI50,EKVX,> 100 µM (inactive)
same,GI50,OVCAR-3,> 100 µM (inactive)
same,GI50,SNB-75,> 100 µM (inactive)
same,GI50,NCI-H23,> 100 µM (inactive)
same,GI50,HL-60,> 100 µM (inactive)
same,GI50,UACC-62,> 100 µM (inactive)
same,GI50,IGROV-1,> 100 µM (inactive)
same,GI50,HOP-62,> 100 µM (inactive)
same,GI50,HOP-92,> 100 µM (inactive)
same,GI50,OVCAR-8,> 100 µM (inactive)
same,GI50,RPMI-8226,> 100 µM (inactive)
same,GI50,MDA-MB-231,> 100 µM (inactive)
same,GI50,786-0,> 100 µM (inactive)
same,GI50,HT-29,> 100 µM (inactive)
same,GI50,NCI/ADR-RES,> 100 µM (inactive)
same,GI50,SF-295,> 100 µM (inactive)
same,GI50,COLO 205,> 100 µM (inactive)
same,GI50,SK-MEL-28,> 100 µM (inactive)
same,GI50,TK-10,> 100 µM (inactive)
same,GI50,HCT-116,> 100 µM (inactive)
same,GI50,OVCAR-4,> 100 µM (inactive)
same,GI50,CAKI-1,> 100 µM (inactive)
same,GI50,NCI-H522,> 100 µM (inactive)
same,GI50,KM12,69 µM (inactive)
same,GI50,SF-268,> 100 µM (inactive)
same,GI50,MOLT-4,> 100 µM (inactive)
same,GI50,HCT-15,> 100 µM
same,GI50,Hs-578T,> 100 µM (inactive)
same,GI50,SK-OV-3,> 100 µM (inactive)
same,GI50,SK-MEL-2,> 100 µM (inactive)
same,GI50,SNB-19,> 100 µM (inactive)
same,GI50,LOX IMVI,> 100 µM (inactive)
same,GI50,HCC 2998,> 100 µM (inactive)
same,GI50,A549,> 100 µM (inactive)
same,GI50,BT-549,> 100 µM (inactive)
same,GI50,UACC-257,> 100 µM (inactive)
same,GI50,T47D,84.3 µM (inactive)
same,GI50,NCI-H226,> 100 µM (inactive)
same,GI50,OVCAR-5,> 100 µM (inactive)
same,GI50,ACHN,> 100 µM (inactive)
CCCC(CCC)C(=O)O [VALPROIC ACID],GI50,K562,6810 µM (inactive)
same,GI50,NCI-H460,4310 µM (inactive)
same,GI50,SN12C,> 100 µM (inactive)
same,GI50,MDA-N,> 100 µM (inactive)
same,GI50,A498,532 µM (inactive)
same,GI50,MDA-MB-435,10900 µM (inactive)
same,GI50,U-251,8020 µM (inactive)
same,GI50,SF-539,15200 µM (inactive)
same,GI50,MCF7,6580 µM (inactive)
same,GI50,CCRF-CEM,14800 µM (inactive)
same,GI50,SR,8510 µM (inactive)
same,GI50,RXF 393,2570 µM (inactive)
same,GI50,SK-MEL-5,2740 µM (inactive)
same,GI50,Malme-3M,4400 µM (inactive)
same,GI50,SW-620,8530 µM (inactive)
same,GI50,M14,> 100 µM (inactive)
same,GI50,PC-3,16900 µM (inactive)
same,GI50,DU-145,10200 µM (inactive)
same,GI50,UO-31,6280 µM (inactive)
same,GI50,EKVX,> 100 µM (inactive)
same,GI50,OVCAR-3,12900 µM (inactive)
same,GI50,SNB-75,6150 µM (inactive)
same,GI50,NCI-H23,> 100 µM (inactive)
same,GI50,HL-60,10300 µM (inactive)
same,GI50,UACC-62,8810 µM (inactive)
same,GI50,IGROV-1,5430 µM (inactive)
same,GI50,HOP-62,> 100 µM (inactive)
same,GI50,HOP-92,9380 µM (inactive)
same,GI50,OVCAR-8,3920 µM (inactive)
same,GI50,RPMI-8226,4070 µM (inactive)
same,GI50,MDA-MB-231,14700 µM (inactive)
same,GI50,786-0,> 100 µM (inactive)
same,GI50,HT-29,3010 µM (inactive)
same,GI50,NCI/ADR-RES,10900 µM (inactive)
same,GI50,SF-295,7760 µM (inactive)
same,GI50,COLO 205,4530 µM (inactive)
same,GI50,SK-MEL-28,> 100 µM (inactive)
same,GI50,TK-10,8240 µM (inactive)
same,GI50,HCT-116,9730 µM (inactive)
same,GI50,OVCAR-4,3720 µM (inactive)
same,GI50,CAKI-1,7480 µM (inactive)
same,GI50,NCI-H522,3240 µM (inactive)
same,GI50,KM12,14300 µM (inactive)
same,GI50,SF-268,2140 µM (inactive)
same,GI50,MOLT-4,11200 µM (inactive)
same,GI50,HCT-15,8090 µM
same,GI50,Hs-578T,12100 µM (inactive)
same,GI50,SK-OV-3,> 100 µM (inactive)
same,GI50,SK-MEL-2,8000 µM (inactive)
same,GI50,SNB-19,> 100 µM (inactive)
same,GI50,LOX IMVI,6280 µM (inactive)
same,GI50,HCC 2998,5710 µM (inactive)
same,GI50,A549,9060 µM (inactive)
same,GI50,BT-549,12200 µM (inactive)
same,GI50,UACC-257,4530 µM (inactive)
same,GI50,T47D,7520 µM (inactive)
same,GI50,NCI-H226,> 100 µM (inactive)
same,GI50,OVCAR-5,> 100 µM (inactive)
same,GI50,ACHN,5450 µM (inactive)
